In patent US11471468B2, “Methods and systems for conditioning of particulate crystalline materials” (Pearl Therapeutics, Inc., priority 2013, dated 2022):

How the values were obtained:
Assay type in all cases: physicochemical
[1] = Amorphous content by (dynamic) vapor sorption; conditions: for Amorphous content by ethanol vapor sorption isotherm / Amorphous content by water vapor sorption isotherm: 25° C.; for Amorphous content by ethanol vapor sorption isotherm: FIG. 9 / FIG. 11; for Amorphous content by water vapor sorption isotherm: FIG. 13
Source text: (§1) A portion of the micronized GP was also conditioned using an in-process conditioning system wherein nitrogen conditioning gas was supplied to the in-process conditioning system and was controlled for flow rate, temperature and humidity. The conditioning gas was humidified through a droplet evaporation chamber after which it was directed to a mixing zone. In the mixing zone, the conditioning gas was mixed with the jet-milled aerosol comprising the micronized GP. The aerosol then entered a conditioning zone where annealing of the micronized GP occurred. The particle residence time through the conditioning zone was adjusted by means of the conditioning zone chamber geometry and/or the gas flow rate through the conditioning zone chamber. After passing through the conditioning zone, the micronized GP particles reached the cyclone-collection zone where the solid particles were separated from the gas phase and transported to a collection vessel. Upon completion of the batch processing, the collector was disengaged and transferred to a glove box for sampling. The sampling occurred in a <5% relative humidity environment. Samples were then analyzed for particle size distribution and amorphous content.
(§2) The amorphous content by vapor sorption and particle morphology for both batches were also assessed. FIG. 9 provides the ethanol vapor sorption isotherm at 25° C. for both batches of micronized budesonide.
(§3) The amorphous content by vapor sorption and particle morphology for both batches were also assessed. FIG. 11 provides the ethanol vapor sorption isotherm at 25° C. for both batches of micronized fluticasone.
All batches were also analyzed for amorphous content by dynamic vapor sorption using n=2 replicates per collector.
(§4) The amorphous content by vapor sorption and particle morphology for both batches of micronized sucrose were also assessed. FIG. 13 provides the water vapor sorption isotherm at 25° C. for both batches of micronized sucrose.

[2] = Particle size distribution by laser diffraction (Sympatec) after processing; conditions: for D10 / D50 / D90 / Span: micronized fluticasone propionate; for Particle Size Distribution Initial X10: micronized sucrose
[3] = as above; conditions: for Physical stability after micronization judged from size distribution: laser diffraction, Tables 4 and 5; for Particle Size Distribution Initial Span / Particle Size Distribution Initial X50 / Particle Size Distribution Initial X90: micronized sucrose
Source text: When referred to herein, the term “optical diameter” indicates the size of a particle as measured using a laser diffraction particle size analyzer equipped with a dry powder dispenser (e.g., Sympatec GmbH, Clausthal-Zellerfeld, Germany).
as §1
(§5) Both micronized sucrose batches were analyzed for particle size distribution by Sympatec laser diffraction.

[4] = Particle morphology by electron micrograph / SEM; conditions: FIG. 10 / FIG. 12 / FIG. 14
Procedure: as §2, §3, §4

[5] = Physical stability: particle size distribution and fusing after 1-day exposure to 25° C. and 60% relative humidity; conditions: micronized sucrose; for Physical Stability: 25° C./60% RH; for Stability of powder on exposure: Sucrose A by visual observation, Sucrose B exposed to 25° C./60% RH
Source text: When used to refer to the conditioned particulate material described herein, the terms “physical stability” and “physically stable” refer to a composition that is resistant to one or more of particle fusing, aggregation, agglomeration, and particle size changes. In certain embodiments, physical stability may be evaluated through exposing the particulate material to accelerated degradation conditions, such as increased temperature and/or humidity as described herein.
as §5

[6] = Stability diagram (glass transition plasticization curve combined with sorption isotherm); conditions: from stability diagram FIG. 18
Source text: Crystallization of an amorphous phase typically occurs rapidly when the amorphous material is exposed to conditions that exceed its glass transition temperature, usually twenty degrees Celsius above the glass transition temperature (Lechuga-Ballesteros, D.; Miller, D. P.; Zhang, J., Residual water in amorphous solids, measurement and effects on stability. In Progress in Amorphous Food and Pharmaceutical Systems, Levine, H., Ed. The Royal Society of Chemistry: London, 2002; pp 275-316). Exposure of amorphous material to temperature in excess of the glass transition can be achieved in the absence of any solvent by exposing the amorphous material to a stream of hot air above its glass transition temperature. However, the glass transition temperature is also a function of the fraction of solvent present in the amorphous material, an effect known as plasticization.
In addition, the solvent content held in an amorphous material is a function of the vapor concentration of the solvent surrounding the amorphous solid. The sorption isotherm of a given material is a representation of the amount of solvent in the amorphous material as a function of the solvent activity (which is proportional to the solvent vapor pressure to saturation solvent vapor pressure ratio) at a given temperature. […]

| Structure (SMILES) | Amorphous content by ethanol vapor sorption isotherm [1] | D10 [2] [μm] | D50 [2] [μm] | D90 [2] [μm] | Span [2] | Physical stability after micronization judged from size distribution [3] | Particle morphology by SEM, annealed compared with unannealed material [4] | Amorphous content by water vapor sorption isotherm [1] | Stability of powder on exposure [5] | other results |
| --- | --- | --- | --- | --- | --- | --- | --- | --- | --- | --- |
| CCC(=O)O[C@]1(C(=O)SCF)[C@H](C)C[C@H]2[C@@H]3C[C@H](F)C4=CC(=O)C=C[C@]4(C)[C@@]3(F)[C@@H](O)C[C@@]21C [Micronized Fluticasone propionate, Batch 1 (unannealed)] | remained substantially amorphous | 0.5 | 1.5 | 3.4 | 2.0 | agglomeration | – | – | – | Ethanol relative pressure at which weight loss is seen ([1]; ethanol vapor sorption isotherm at 25° C.): 60 % p/po |
| CCC(=O)O[C@]1(C(=O)SCF)[C@H](C)C[C@H]2[C@@H]3C[C@H](F)C4=CC(=O)C=C[C@]4(C)[C@@]3(F)[C@@H](O)C[C@@]21C [Micronized Fluticasone propionate, Batch 2 (annealed)] | stable and showed no crystallization event | 0.5 | 1.4 | 3.1 | 1.9 | good physical stability | smoother surfaces and more rounded edges | – | – | – |
| OC[C@H]1O[C@@](CO)(O[C@H]2O[C@H](CO)[C@@H](O)[C@H](O)[C@H]2O)[C@@H](O)[C@@H]1O [Sucrose A, Sucrose] | – | – | – | – | – | – | – | remained substantially amorphous | fusing of the material | Water relative pressure at which weight loss is seen ([1]; water vapor sorption isotherm at 25° C.): 30 % p/po; Particle Size Distribution Initial X10 ([2]; listed as Sucrose 1): 0.5 μm; Particle Size Distribution Initial Span ([3]; listed as Sucrose 1): 2.4; Particle Size Distribution Initial X50 ([3]; listed as Sucrose 1): 1.7 μm; Particle Size Distribution Initial X90 ([3]; listed as Sucrose 1): 4.5 μm; Physical Stability ([5]; listed as Sucrose 1): Unstable, |
| OC[C@H]1O[C@@](CO)(O[C@H]2O[C@H](CO)[C@@H](O)[C@H](O)[C@H]2O)[C@@H](O)[C@@H]1O [Sucrose B, Sucrose] | – | – | – | – | – | – | smoother surfaces and more rounded edges | stable and showed no crystallization event | good stability | Particle Size Distribution Initial X10 ([2]; listed as Sucrose 2): 0.6 μm; Particle Size Distribution Initial Span ([3]; listed as Sucrose 2): 1.9; Particle Size Distribution Initial X50 ([3]; listed as Sucrose 2): 2.2 μm; Particle Size Distribution Initial X90 ([3]; listed as Sucrose 2): 4.9 μm; Physical Stability [5]: Stable,; Particle Size Distribution T = 1 day at 25° C./60% RH Span ([5]; T = 1 day at 25° C./60% RH): 1.9; Particle Size Distribution T = 1 day at 25° C./60% RH X10 ([5]; T = 1 day at 25° C./60% RH): 0.7 μm; Particle Size Distribution T = 1 day at 25° C./60% RH X50 ([5]; T = 1 day at 25° C./60% RH): 2.5 μm; Particle Size Distribution T = 1 day at 25° C./60% RH X90 ([5]; T = 1 day at 25° C./60% RH): 5.2 μm |
| C[N+]1(C)CCC(OC(=O)C(O)(c2ccccc2)C2CCCC2)C1.[Br-] (stereo not drawn) [glycopyrrolate, 3-[(cyclopentylhydroxyphenylacetyl)oxy]-1,1-dimethylpyrrolidinium bromide] | – | – | – | – | – | – | – | – | – | RH required to promote annealing ([6]; at 60° C.): 10 % RH; RH at which fast crystallization of amorphous material will occur ([6]; in the range of 20-40° C.): > 50% |
